Patent publication US8859580B2 (Boehringer Ingelheim International GmbH, priority 2007, dated 2014)

The molecules below were run against T1, 11β-HSD1 (Homo sapiens, UniProt P28845) (assay: In vitro inhibition of 11β-HSD1, HTRF detection of cortisol generated from cortisone by human liver microsomes). Settings: 11β-HSD IC50 (nM), 1 hour at 37° C., pH 6.0, NADPH 200 μM, cortisone 80 nM, inhibition relative to carbenoxolone signal.
T1 construct: detecting cortisol generated from cortisterone by human liver microsomes; from tissue; host or cells: human liver microsomes
T1 sequence (P28845 whole entry): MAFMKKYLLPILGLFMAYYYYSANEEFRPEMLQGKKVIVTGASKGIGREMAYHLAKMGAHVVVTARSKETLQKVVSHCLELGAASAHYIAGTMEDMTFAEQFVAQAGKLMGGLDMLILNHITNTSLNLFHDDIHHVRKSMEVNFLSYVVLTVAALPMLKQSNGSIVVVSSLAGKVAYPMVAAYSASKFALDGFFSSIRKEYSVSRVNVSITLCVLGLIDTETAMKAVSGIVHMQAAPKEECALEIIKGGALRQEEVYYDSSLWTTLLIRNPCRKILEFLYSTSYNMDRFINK
Type: biochemical
Procedure: Cortisol generated in the reaction is then detected with a competitive immunoassay, involving two HTRF conjugates: cortisol linked to XL665 and anti-cortisol antibody labeled with Europium cryptate. The incubation period for detection reaction was typically 2 hours. […] The ratio of the two emission signals is then calculated (Em665*10000/Em615). […] Each assay also contained a calibration curve with cortisol to transform the fluorescent data into cortisol concentrations. Percent inhibition of each compound was determined relative to the carbenoxolone signal and IC50 curves were generated.
For `C[C@H]1[C@H]2Cc3ccccc3[C@]1(C)CCN2C(=O)c1ccc2nc[nH]c2c1` (racemic) [Example 77, (3H-Benzoimidazol-5-yl)-(6,11-dimethyl-1,2,5,6-tetrahydro-4H-2,6-methano-benzo[d]azocin-3-yl)-methanone], the IC50 was 144 nM. `CC1(C)[C@H]2Cc3ccccc3[C@]1(C)CCN2C(=O)c1ccc2nc[nH]c2c1` (racemic) [Example 82, (3H-Benzoimidazol-5-yl)-[(2R,6S)-6,11,11-trimethyl-1,2,5,6-tetrahydro-4H-2,6-methano-benzo[d]azocin-3-yl]-methanone] gave an IC50 of 56 nM. `CC[C@@H]1[C@H]2Cc3ccc(O)cc3[C@]1(CC)CCN2C(=O)c1ccc2nc[nH]c2c1` (racemic) [Example 85, (3H-Benzoimidazol-5-yl)-(6,11-diethyl-8-hydroxy-1,2,5,6-tetrahydro-4H-2,6-methano-benzo[d]azocin-3-yl)-methanone] was tested, and the IC50 was 89 nM. Molecule `CC[C@H]1[C@H]2Cc3ccc(O)cc3[C@]1(CC)CCN2C(=O)c1ccc2nc[nH]c2c1` (racemic) [Example 86, (3H-Benzoimidazol-5-yl)-(6,11-diethyl-8-hydroxy-1,2,5,6-tetrahydro-4H-2,6-methano-benzo[d]azocin-3-yl)-methanone] has an IC50 of 2400 nM. Molecule `CC[C@]12CCN(C(=O)c3ccc4nc[nH]c4c3)[C@H](Cc3ccc(O)cc31)[C@@H]2C` (racemic) [Example 87, (3H-Benzoimidazol-5-yl)-(6-ethyl-8-hydroxy-11-methyl-1,2,5,6-tetrahydro-4H-2,6-methano-benzo[d]azocin-3-yl)-methanone] has an IC50 of 622 nM. In the case of `CC[C@]12CCN(C(=O)c3ccc4nc[nH]c4c3)[C@H](Cc3ccc(O)cc31)[C@H]2C` (racemic) [Example 200, (3H-Benzoimidazol-5-yl)-(6-ethyl-8-hydroxy-11-methyl-1,2,5,6-tetrahydro-4H-2,6-methano-benzo[d]azocin-3-yl)-methanone], the IC50 is reported as 117 nM. `C[C@@H]1C[C@]2(C)C[C@@H](Cc3ccccc32)N1C(=O)c1ccc2nc[nH]c2c1` (racemic) [Example 253, (3H-Benzoimidazol-5-yl)-(4,6-dimethyl 1,2,5,6-tetrahydro-4H-2,6-methano-benzo[d]azocin-3-yl)-methanone] was tested, and the IC50 was 78 nM. In the case of `C[C@@H]1CN(C(=O)c2ccc3nc[nH]c3c2)[C@@H]2Cc3ccccc3[C@@]1(C)C2` (racemic) [Example 294, (3H-Benzoimidazol-5-yl)-(5,6-dimethyl-1,2,5,6-tetrahydro-4H-2,6-methano-benzo[d]azocin-3-yl)-methanone], the IC50 is reported as 146 nM. Work on `COc1cc2c(cc1C)C[C@@H]1N(C(=O)c3ccc4nc[nH]c4c3)CC[C@@]2(C)C1(C)C` (stereo in doubt) [Example 61, (3H-Benzoimidazol-5-yl)-[(2S,6R)-8-methoxy-6,9,11,11-tetramethyl-1,2,5,6-tetrahydro-4H-2,6-methano-benzo[d]azocin-3-yl]-methanone] yielded an IC50 of 798 nM. For `COc1cc2c(cc1C)C[C@H]1N(C(=O)c3ccc4nc[nH]c4c3)CC[C@]2(C)C1(C)C` (stereo in doubt) [Example 62, (3H-Benzoimidazol-5-yl)-[(2R,6S)-8-methoxy-6,9,11,11-tetramethyl-1,2,5,6-tetrahydro-4H-2,6-methano-benzo[d]azocin-3-yl]-methanone], the IC50 was 109 nM. `COc1cc2c(cc1C)[C@]1(C)CCN(C(=O)c3ccc4nc[nH]c4c3)[C@H](C2)C1(C)C` (stereo in doubt) [Example 63, (3H-Benzoimidazol-5-yl)-[(2R,6S)-9-methoxy-6,8,11,11-tetramethyl-1,2,5,6-tetrahydro-4H-2,6-methano-benzo[d]azocin-3-yl]-methanone] was tested, and the IC50 was 216 nM. `COc1cc2c(cc1C)[C@@]1(C)CCN(C(=O)c3ccc4nc[nH]c4c3)[C@@H](C2)C1(C)C` (stereo in doubt) [Example 64, (3H-Benzoimidazol-5-yl)-[(2S,6R)-9-methoxy-6,8,11,11-tetramethyl-1,2,5,6-tetrahydro-4H-2,6-methano-benzo[d]azocin-3-yl]-methanone] gave an IC50 of 753 nM. With `Cc1cc2c(cc1O)[C@]1(C)CCN(C(=O)c3ccc4nc[nH]c4c3)[C@H](C2)C1(C)C` (stereo in doubt) [Example 65, (3H-Benzoimidazol-5-yl)-[(2R,6S)-8-hydroxy-6,9,11,11-tetramethyl-1,2,5,6-tetrahydro-4H-2,6-methano-benzo[d]azocin-3-yl]-methanone] the IC50 was 29 nM. In the case of `Cc1cc2c(cc1O)[C@@]1(C)CCN(C(=O)c3ccc4nc[nH]c4c3)[C@@H](C2)C1(C)C` (stereo in doubt) [Example 66, (3H-Benzoimidazol-5-yl)-[(2S,6R)-8-hydroxy-6,9,11,11-tetramethyl-1,2,5,6-tetrahydro-4H-2,6-methano-benzo[d]azocin-3-yl]-methanone], the IC50 is reported as 822 nM. `Cc1cc2c(cc1O)C[C@H]1N(C(=O)c3ccc4nc[nH]c4c3)CC[C@]2(C)C1(C)C` (stereo in doubt) [Example 67, (3H-Benzoimidazol-5-yl)-[(2R,6S)-9-hydroxy-6,8,11,11-tetramethyl-1,2,5,6-tetrahydro-4H-2,6-methano-benzo[d]azocin-a 3-yl]-methanone] gave an IC50 of 32 nM. Molecule `Cc1cc2c(cc1O)C[C@@H]1N(C(=O)c3ccc4nc[nH]c4c3)CC[C@@]2(C)C1(C)C` (stereo in doubt) [Example 68, (3H-Benzoimidazol-5-yl)-[(2S,6R)-9-hydroxy-6,8,11,11-tetramethyl-1,2,5,6-tetrahydro-4H-2,6-methano-benzo[d]azocin-3-yl]-methanone] has an IC50 of 372 nM. `CC1(C)[C@H]2Cc3c(O)cccc3[C@]1(C)CCN2C(=O)c1ccccc1` [Example 1, [(2R,6S)-10-Hydroxy-6,11,11-trimethyl-1,2,5,6-tetrahydro-4H-2,6-methano-benzo[d]azocin-3-yl]-phenyl-methanone] showed an IC50 of 285 nM. In the case of `CC1(C)[C@H]2Cc3c(O)cccc3[C@]1(C)CCN2C(=O)c1ccccc1Cl` [Example 2, (2-Chloro-phenyl)-[(2R,6S)-10-hydroxy-6,11,11-trimethyl-1,2,5,6-tetrahydro-4H-2,6-methano-benzo[d]azocin-3-yl]-methanone], the IC50 is reported as 741 nM. Work on `CC1(C)[C@H]2Cc3c(O)cccc3[C@]1(C)CCN2C(=O)c1ccc(C(N)=O)cc1` [Example 3, 4-[(2R,6S)-10-Hydroxy-6,11,11-trimethyl-1,2,5,6-tetrahydro-4H-2,6-methano-benzo[d]azocine-3-carbonyl]benzamide] yielded an IC50 of 85 nM. Molecule `CC1(C)[C@H]2Cc3c(O)cccc3[C@]1(C)CCN2C(=O)c1ccc2nc[nH]c2c1` [Example 4, (3H-Benzoimidazol-5-yl)-[(2R,6S)-10-hydroxy-6,11,11-trimethyl-1,2,5,6-tetrahydro-4H-2,6-methano-benzo[d]azocin-3-yl]-methanone] has an IC50 of 56 nM. In the case of `Cc1ccccc1C(=O)N1CC[C@@]2(C)c3cccc(O)c3C[C@@H]1C2(C)C` [Example 5, [(2R,6S)-10-Hydroxy-6,11,11-trimethyl-1,2,5,6-tetrahydro-4H-2,6-methano-benzo[d]azocin-3-yl]-o-tolyl-methanone], the IC50 is reported as 3100 nM. `COc1ccccc1C(=O)N1CC[C@@]2(C)c3cccc(O)c3C[C@@H]1C2(C)C` [Example 6, [(2R,6S)-10-Hydroxy-6,11,11-trimethyl-1,2,5,6-tetrahydro-4H-2,6-methano-benzo[d]azocin-3-yl)-(2-methoxy-phenyl]-methanone] gave an IC50 of 1060 nM. Molecule `Cc1cccc(C(=O)N2CC[C@@]3(C)c4cccc(O)c4C[C@@H]2C3(C)C)c1` [Example 7, [(2R,6S)-10-Hydroxy-6,11,11-trimethyl-1,2,5,6-tetrahydro-4H-2,6-methano-benzo[d]azocin-3-yl]-m-tolyl-methanone] has an IC50 of 262 nM. Work on `CC1(C)[C@H]2Cc3c(O)cccc3[C@]1(C)CCN2C(=O)c1ccccc1C#N` [Example 8, 2-[(2R,6S)-10-Hydroxy-6,11,11-trimethyl-1,2,5,6-tetrahydro-4H-2,6-methano-benzo[d]azocine-3-carbonyl]-benzonitrile] yielded an IC50 of 3360 nM. `CC(=O)Nc1cccc(C(=O)N2CC[C@@]3(C)c4cccc(O)c4C[C@@H]2C3(C)C)c1` [Example 9, N-{3-[(2R,6S)-10-Hydroxy-6,11,11-trimethyl-1,2,5,6-tetrahydro-4H-2,6-methano-benzo[d]azocine-3-carbonyl]-phenyl}-acetamide] showed an IC50 of 1980 nM. `CC1(C)[C@H]2Cc3c(O)cccc3[C@]1(C)CCN2C(=O)c1cccc(C#N)c1` [Example 10, 3-[(2R,6S)-10-Hydroxy-6,11,11-trimethyl-1,2,5,6-tetrahydro-4H-2,6-methano-benzo[d]azocine-3-carbonyl]-benzonitrile] gave an IC50 of 1780 nM. For `COc1cccc(C(=O)N2CC[C@@]3(C)c4cccc(O)c4C[C@@H]2C3(C)C)c1` [Example 11, [(2R,6S)-10-Hydroxy-6,11,11-trimethyl-1,2,5,6-tetrahydro-4H-2,6-methano-benzo[d]azocin-3-yl]-(3-methoxy-phenyl)-methanone], the IC50 was 530 nM. With `Cc1ccc(C(=O)N2CC[C@@]3(C)c4cccc(O)c4C[C@@H]2C3(C)C)cc1` [Example 12, [(2R,6S)-10-Hydroxy-6,11,11-trimethyl-1,2,5,6-tetrahydro-4H-2,6-methano-benzo[d]azocin-3-yl]-p-tolyl-methanone] the IC50 was 792 nM. Molecule `CC1(C)[C@H]2Cc3c(O)cccc3[C@]1(C)CCN2C(=O)c1ccc(C#N)cc1` [Example 13] has an IC50 of 1610 nM.

Same assay, conditions: 1 hour at 37° C., pH 6.0, NADPH 200 μM, cortisone 80 nM, inhibition relative to carbenoxolone signal, read-out: 11β-HSD IC50
In the case of `O=C(c1ccc2nc[nH]c2c1)N1CC[C@@H]2C[C@H]1Cc1cccnc12` (racemic) [Example 325, (3H-Benzoimidazol-5-yl)-(5,8,9,10-tetrahydro-6H-6,10-methano-pyrido[3,2-d]azocin-7-yl)-methanone], the IC50 is reported as 771 nM.
